Tests used:
[1] = molecular target: T1, TGF-beta receptor type-1 (Homo sapiens, UniProt P36897); experiment: Inhibition of TGF-beta-induced ALK5 in human HepG2 cells by luciferase assay; assay type: cell-based
T1 sequence (P36897 whole entry): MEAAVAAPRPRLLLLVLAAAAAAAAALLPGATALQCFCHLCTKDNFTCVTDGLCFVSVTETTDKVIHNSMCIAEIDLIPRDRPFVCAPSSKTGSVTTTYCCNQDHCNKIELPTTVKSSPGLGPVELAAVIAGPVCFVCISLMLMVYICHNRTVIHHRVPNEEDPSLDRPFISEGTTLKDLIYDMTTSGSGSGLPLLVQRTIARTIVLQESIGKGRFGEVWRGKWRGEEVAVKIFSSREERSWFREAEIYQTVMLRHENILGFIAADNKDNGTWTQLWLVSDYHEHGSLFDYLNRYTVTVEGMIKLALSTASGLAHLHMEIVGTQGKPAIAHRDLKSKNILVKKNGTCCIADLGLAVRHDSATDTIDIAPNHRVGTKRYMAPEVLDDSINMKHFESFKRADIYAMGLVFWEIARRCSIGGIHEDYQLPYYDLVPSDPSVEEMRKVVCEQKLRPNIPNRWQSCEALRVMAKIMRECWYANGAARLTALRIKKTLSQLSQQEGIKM

[2] = molecular target: Mitogen-activated protein kinase 14 (Homo sapiens, UniProt Q16539); experiment: Inhibition of GST-fused p38alpha
[3] = molecular target: T1, TGF-beta receptor type-1; experiment: Inhibition of human ALK5 kinase expressed in Sf9 cells
[4] = AUC in rat at 5 mg/kg, po; assay type: ADME, organism-based; design: dose 5 mg/kg, route oral; settings: plasma
[5] = tested on: Rattus norvegicus; experiment: Inhibition of dimethylnitreosamine-induced collagen IA1 mRNA expression in rat liver at 10 mg/kg, po bid; assay type: functional
[6] = Bioavailability in rat at 5 mg/kg, po; assay type: ADME, organism-based; settings: in vivo
[7] = tested on: Rattus norvegicus; experiment: Inhibition of dimethylnitreosamine-induced collagen IA1 mRNA expression in rat liver at 5 mg/kg, po bid; assay type: functional

Mitogen-activated protein kinase 14, sequence (Q16539 whole entry, the tested form may be a part): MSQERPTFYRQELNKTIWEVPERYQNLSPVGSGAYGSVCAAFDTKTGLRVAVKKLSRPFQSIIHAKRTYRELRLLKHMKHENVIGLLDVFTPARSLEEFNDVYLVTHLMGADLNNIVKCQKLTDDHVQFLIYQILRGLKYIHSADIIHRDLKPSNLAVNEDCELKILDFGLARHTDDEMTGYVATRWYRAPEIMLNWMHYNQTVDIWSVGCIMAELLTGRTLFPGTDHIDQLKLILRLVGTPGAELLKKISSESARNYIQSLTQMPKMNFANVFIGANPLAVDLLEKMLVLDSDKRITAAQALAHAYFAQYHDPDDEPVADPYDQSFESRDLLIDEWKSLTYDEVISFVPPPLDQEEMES

Cc1cccc(-c2nc(Nc3ccc4[nH]ncc4c3)c3ccccc3n2)n1
IC50 [1]: 90 nM | IC50 [2]: > 10000 nM | IC50 [3]: 25 nM

Cc1csc(-c2nc(Nc3ccncc3)c3ccccc3n2)n1
IC50 [1]: 342 nM | IC50 [2]: > 15000 nM | IC50 [3]: 20 nM

Cc1cccc(-c2nc(Nc3ccc4c(cnn4C)c3)c3ccccc3n2)n1
IC50 [1]: 794 nM | IC50 [2]: > 10000 nM | IC50 [3]: 588 nM

Cc1cccc(-c2nc(Nc3ccc4ncsc4c3)c3ccccc3n2)n1
IC50 [1]: > 5000 nM | IC50 [2]: > 10000 nM | IC50 [3]: 646 nM

Cc1cccc(-c2nc(C)cc(Nc3ccncc3)n2)n1
IC50 [1]: 745 nM | IC50 [3]: 93 nM

Cc1cccc(-c2nc(Nc3ccncc3)c3sccc3n2)n1
IC50 [1]: 60 nM | IC50 [3]: 22 nM

Cc1cc(Nc2nc(-c3cccc(C)n3)nc3ccccc23)ccn1
IC50 [1]: 1020 nM | IC50 [2]: > 10000 nM | IC50 [3]: 199 nM

Cc1cccc(-c2nc(Nc3ccc4[nH]nnc4c3)c3ccccc3n2)n1
IC50 [1]: > 5000 nM | IC50 [2]: > 10000 nM | IC50 [3]: 3720 nM

Cc1cccc(-c2nc(Nc3cccc(C(N)=O)c3)c3ccccc3n2)n1
IC50 [1]: 545 nM | IC50 [2]: > 10000 nM | IC50 [3]: 263 nM

Cc1cccc(-c2nc(Nc3ccncc3)c3c(C)csc3n2)n1
IC50 [1]: 318 nM | IC50 [3]: 16 nM

c1ccc(-c2nc(Nc3ccncc3)c3ccccc3n2)cc1
IC50 [1]: 2470 nM | IC50 [2]: 1270 nM | IC50 [3]: 194 nM

Cc1cccc(-c2nc(Nc3ccncc3)c3ccccc3n2)n1
IC50 [1]: 95 nM | AUC [4]: 524 ng·h/mL | inhibition in vivo at 10 mg/kg [5]: 73% | bioavailability [6]: 40% | IC50 [2]: 6720 nM | IC50 [3]: 25 nM | inhibition in vivo at 5 mg/kg [7]: 66%

Clc1cccc(-c2nc(Nc3ccncc3)c3ccccc3n2)c1
IC50 [1]: 1610 nM | IC50 [2]: > 15000 nM | IC50 [3]: 49 nM

Cc1cccc(-c2nc(Nc3ccncn3)c3ccccc3n2)n1
IC50 [1]: 60 nM | IC50 [2]: > 10000 nM | IC50 [3]: 40 nM

Source: ChEMBL document CHEMBL1158406, “Design of novel quinazoline derivatives and related analogues as potent and selective ALK5 inhibitors” (Bioorg Med Chem Lett, 2009)
